In patent publication US4533662A, “2-Acylaminomethyl-1,4-benzodiazepine compounds and analgesic use” (Kali-Chemie Pharma GmbH, priority 1980, dated 1985):
Counter-ions that a name gives are not always drawn.

Columns and labels:
rats = experiment: Arthritis pain test with rats; type: in vivo, Male rats of the strain OFA; details: Rattus norvegicus, po, 3 hours after administration; protection (no or one squeak) in 50% of animals; read-out: Suppression of arthritis pain in rats ED50
Method: 2. Arthritis pain test with rats.
Male rats of the strain OFA weighing 160 g. to 180 g. are anesthesized by intraperitoneal administration of 20 mg./kg. of pentobarbital sodium. 0.1 ml. of suspension of Mycobacterium Smegmae (S I043) in paraffin oil (0.6 mg. of Mycobacterium in 0.1 ml. of paraffin oil) are injected intracutaneously into the left hind paw. Fourteen days thereafter, when a pronounced secondary arthritis has developed particularly in the right hind paw, the effects of the compound to be tested are investigated. 30 minutes before the administration of the compound to be tested, a control measurement is carried out by bending three times the ankle joint of the right hind paw and the number of squeaks produced by the animal are counted. […] Three hours after oral administration of the compound to be tested, the bending procedure is repeated. Animals which emit only one squeak or none at all, are considered to be protected against pain. Between 9 and 20 rats are tested per dose and the ED50 (95% confidence limit) is determined according to the method of Litchfield and Wilcoxon (1949). The dose which achieves protection in 50% of the treated animals is designated as the ED50.

mice [1] = experiment: Tail flick test with mice; type: in vivo, male and female mice; details: Mus musculus, sc, 0.5 h; s.c., 30 min after administration; reaction time 75% longer in 50% of animals
Method: 3. Tail flick test with mice.
The method is based on the procedure described by d'Amour and Smith in 1941. In contrast thereto there are used, in place of rats, fed male and female mice of a body weight of 16 g. to 25 g. 30 minutes before treatment with the compound to be tested each mouse is placed into a separate cylindrical container of such a size that the mouse cannot turn around and cannot move forward. Its tail extends outwardly of the container while resting in a narrow trough. A specific spot of the tail of each animal (at a distance of about 35 mm. from the tail root) is exposed to the heat of radiation of a lamp of known strength and temperature. The lamp is positioned directly underneath the tail. The time in seconds which the mouse needs in order to jerk the tail out of the range of the light ray, is determined twice, once 30 minutes and another time 15 minutes before the subcutaneous administration of the compound (10 mg./kg) to be tested. Mice, the reaction time of which deviates by more than 25%, are eliminated and disregarded. The reaction times are again measured 15 minutes and 30 minutes after administration. An increase in the reaction times by more than 75% of the average reaction time values measured before administration of the test compound to the same mouse is considered an analgesic effect. […] The ED50 is calculated according to the method of Litchfield and Wilcoxon (1949).

mice [2] = experiment: Determination of the minimum toxic dose in mice; type: in vivo, male mice; details: p.o., observed 3 hours, deaths and symptoms up to 24 hours; maximum dose 300 mg./kg.
Method: 1. Determination of the minimum toxic dose.
Maximum doses of 300 mg./kg. of the compound to be tested are administered per os to male mice of a weight of 20 g. to 25 g. The animals are carefully observed for any toxicity symptoms during 3 hours. In addition thereto all symptoms and deaths are registered for a period of time of 24 hours after administration of the drug. Any accompanying symptoms are also observed and registered. When death or toxic symptoms are observed, more and more decreasing doses are administered to other mice, until no more toxic symptoms are encountered. The lowest dose which causes toxic symptoms is given as the minimum toxic dose.

Structure (SMILES) | ED50 (rats) [mg/kg] | ED50 (mice [1]) [mg/kg] | Minimum toxic dose in mice (mice [2]) [mg/kg]
COc1ccc(CC(=O)NCC2CN=C(c3ccccc3)c3cc4c(cc3N2C)OCO4)cc1OC (centres unmarked) [Example 113] | 18 to 32 | < 5.6 | 100
Cc1ccc2c(c1)C(c1ccccc1F)=NCC(CNC(=O)c1ccccc1)N2C (centres unmarked) [Example 47] | ~13 | 5.6 | > 300
COc1ccc(C(=O)NCC2CN=C(c3ccccc3)c3ccccc3N2C)cc1 (centres unmarked) [Example 20] | ~4 | 4.6 | 300
COc1ccc2c(c1)N(C)C(CNC(=O)c1ccccc1)CN=C2c1cccc(C(F)(F)F)c1 (centres unmarked) [Example 55] | 10 to 18 | 5.6 to 10 | –
CN1c2ccccc2C(c2ccccc2)=NCC1CNC(=O)c1ccc(Cl)c(Cl)c1 (centres unmarked) [Example 19, 1-Methyl-2-(3,4-dichlorobenzoylaminomethyl)-5-phenyl-1H--2,3-dihydro-1,4-benzo diazepine hydrochloride] | ~2.3 | 1 | > 300
CCN1c2ccccc2C(c2ccccc2F)=NCC1CNC(=O)c1ccc(C(F)(F)F)cc1 (centres unmarked) [Example 154] | 2 | – | –
CN1c2ccccc2C(c2ccccc2F)=NCC1CNC(=O)c1ccc(C(F)(F)F)cc1 (centres unmarked) [Example 33] | 5.6 to 10 | 1.4 | > 300
COc1ccc2c(c1)N(C)C(CNC(=O)c1ccccc1)CN=C2c1ccc(Cl)cc1Cl (centres unmarked) [Example 4, 8-Methoxy-1-methyl-2-benzoyl amino methyl-5-(2',4'-dichlorophenyl)-1H-2,3-dihydro-1,4-benzo diazepine] | 0.5 | 0.07 | 10
COc1ccc(C(=O)NCC2CN=C(c3ccccc3F)c3ccccc3N2C)cc1 (centres unmarked) [Example 32] | 1.7 | 4.2 | 300
CN1c2cc3c(cc2C(c2ccccc2)=NCC1CNC(=O)c1ccccc1)OCO3 (centres unmarked) [Example 49] | 2.5 | 0.56 | 100
CN1c2ccccc2C(c2ccccc2)=NCC1CNC(=O)c1ccccc1 (centres unmarked) [Example 1, 1-Methyl-2-benzoyl amino methyl-5-phenyl-1H-2,3-dihydro-1,4-benzo diazepine] | 19 | 0.52 | > 300
CN1c2ccccc2C(c2ccccc2)=NCC1CNC(=O)c1ccc([N+](=O)[O-])cc1 (centres unmarked) [Example 28] | 0.6 | – | > 300
COc1ccc(CC(=O)NCC2CN=C(c3ccccc3)c3cc(Cl)ccc3N2C)cc1OC (centres unmarked) [Example 112] | 10 | 20 | 50
CN1c2ccccc2C(c2ccccc2F)=NCC1CNC(=O)c1ccc(C#N)cc1 (centres unmarked) [Example 29] | 1.7 | 21 | 300
COc1ccc2c(c1)N(C)C(CNC(=O)c1ccccc1)CN=C2c1ccccc1F (centres unmarked) [Example 60] | 3.5 | 0.32 | 300
COc1ccc(C(=O)NCC2CN=C(c3ccc(F)cc3)c3ccccc3N2C)cc1 (centres unmarked) [Example 40] | 11 | – | > 300
CN1c2cc(F)ccc2C(c2ccccc2)=NCC1CNC(=O)c1ccccc1 (centres unmarked) [Example 59] | 9.7 | 1 | 300
COc1ccc2c(c1)N(C)C(CNC(=O)c1ccccc1)CN=C2c1cccc(F)c1 (centres unmarked) [Example 58] | ~18 | 1.6 | 300
COc1ccc2c(c1)N(C)C(CNC(=O)c1ccccc1)CN=C2c1ccc(F)cc1 (centres unmarked) [Example 2, 8-Methoxy-1-methyl-2-benzoyl amino methyl-5-(4'-fluorophenyl)-1H-2,3-dihydro-1,4-benzo diazepine] | 2 | 0.64 | 50
CN1c2ccccc2C(c2ccccc2F)=NCC1CNC(=O)Cc1ccccc1Cl (centres unmarked) [Example 117] | 6 | 13 | > 300
Cc1ccc(C(=O)NCC2CN=C(c3ccccc3)c3ccccc3N2C)cc1 (centres unmarked) [Example 25] | 3.2 | 2.5 | –
COc1cccc(C(=O)NCC2CN=C(c3ccccc3F)c3ccccc3N2C)c1 (centres unmarked) [Example 31] | 10 to 18 | 1.8 | > 300
CCN1c2ccccc2C(c2ccccc2)=NCC1CNC(=O)c1ccc(C(F)(F)F)cc1 (centres unmarked) [Example 155] | ~2 | – | –
CN1c2ccccc2C(c2ccccc2F)=NCC1CNC(=O)c1cccc(C#N)c1 (centres unmarked) [Example 35] | 9 | 13 | –
CN1c2ccccc2C(c2ccccc2)=NCC1CNC(=O)c1ccc(Cl)cc1Cl (centres unmarked) [Example 18] | 7.5 | – | > 300
